The text below walks through data of patent publication US20220298038A1, “A METHOD FOR DISRUPTING BIOFILMS IN WASTEWATER SYSTEMS” (GRENOF PTY LTD, priority 2019, published 2022).

Where two headings read alike, the source gives them in different places.

The conditions of data set [1]: cited from earlier work.
For data set [2] the following is noted: cited from earlier work. This is another data set of the same source.
The subject of the next data set is Catalase. The note with it: cited from earlier work.
The conditions of data set [3]: cited from earlier work. This is another data set of the same source.
The conditions of data set [4]: 35° C. vs 15° C.; cited from earlier work.
For the next data set, the system named is biofilm. Put plainly: Biofilm disrupting activity compared with other oxidants. The method, then:
Peracetic acid is typically more reactive at higher temperature (5 times more reactive at 35° C. than 15° C.). […] This is believed to be due to the nature and type of radicals formed upon cleavage of the peracetic acid peroxy bond.

The conditions of data set [5]: cited from earlier work. The source holds these as a separate data set.
In data set [6] the test system is biofilm in a sewerage network. Briefly: Trial 2: H2S Odalog monitoring, manhole 200 m from Location 2. Set-up: species or system sulphate reducing microbes and methanogenic archaea.
Setting [7] is: standard oxidation potential (at pH 7).
Setting [8] is: Days 67-68, H2O2 330 mg/L after F1 dosing stopped.

Turning to `CCCCCCCC(=O)OO` [peroxyoctanoic acid], the solubility in water result in data set [1] ((at pH 7)) is “slightly soluble”.

Take `CCCCCCCCCCCC(=O)OO` [peroxydodecanoic]: the solubility in water entry in data set [1] (pH 7) is listed as “very limited solubility”.

As to `O=[O+][O-]` [Ozone], the “Oxidation Potential” value in data set [2] (pH 7) was 2.07 eV.

For the molecule `CCOO` [ethyl hydroperoxide], in the data set on Catalase, the binding by catalase result is given as “rapidly” and the catalysis by catalase result is reported as “very inefficient”.

Regarding `S` [Bisulphide (HS^−), Bisulphide], the “Mole Fraction of Species (%)” value is recorded as <1% in data set [3] (pH 4); ~1% in data set [3] (pH 5); 3% in data set [3] (pH 5.5); 9% in data set [3] (pH 6.0); 24% in data set [3] (pH 6.5); 50% in data set [3] (pH 7.0). Moreover, the “Mole Fraction of Species (%)” value in data set [3] (pH 7.5) is on record as 76%; in data set [3] (pH 8.0) it was 91%; in data set [3] (pH 8.5), 97%; in data set [3] (pH 9.0), ~99%; in data set [3] (pH 10.0), >99%.

Take `[O][Cl+][O-]` [Chlorine Dioxide]: the “Oxidation Potential” value in data set [2] (pH 7) was 0.95 eV.

On to `CC(=O)OO` [Peracetic Acid, peroxyacetic acid], for which, in data set [4], the “reactivity at 35° C. relative to 15° C.” value is 5 times. Further, the “Oxidation Potential” value in data set [2] (pH 7) is recorded as 1.81 eV. The “biofilm disrupting activity compared with hydrogen peroxide” value in the data set on biofilm (vs hydrogen peroxide) is listed as “stronger biofilm disrupting activity”. In addition, the “biofilm disrupting activity compared with ozone” value in the data set on biofilm (vs ozone) is “stronger biofilm disrupting activity”. For the same molecule, the “DT50 (25° C.)” value was 46.7 h in data set [5] (pH 4), 31.7 h in data set [5] (pH 7) and 3.6 h in data set [5] (pH 9).

Regarding `OCl` [Sodium Hypochlorite], the “Oxidation Potential” value in data set [2] (setting [7]) is reported as 0.94 eV.

Consider `S` [Hydrogen Sulphide (H2S), Hydrogen Sulphide], for which the “Mole Fraction of Species (%)” value in data set [3] (pH 4) was >99%; in data set [3] (pH 5), ~99%; in data set [3] (pH 5.5), 97%; in data set [3] (pH 6.0) it was 91%; in data set [3] (pH 6.5), 76%; in data set [3] (pH 7.5), 24%. In addition, the “Mole Fraction of Species (%)” value in data set [3] (pH 8.0) is listed as 9%; in data set [3] (pH 8.5), 3%; in data set [3] (pH 9.0), ~1%; in data set [3] (pH 10.0) it was <1%.

As to `CCCCCCCCCCCCCCCCCC(=O)OO` [peroxyoctadecanoic], the solubility in water entry in data set [1] (pH 7) is given as “very limited solubility”.

On to `OO` [Formulation H2O2, hydrogen peroxide], for which, in data set [2] (setting [7]), the “Oxidation Potential” value is on record as 1.78 eV. Besides, the “Avg. H2S” value in data set [6] (setting [8]) was found to be 0.3 ppm; in data set [6] (Days 69-81, H2O2 330 mg/L) it was 2.8 ppm; in data set [6] (Days 82-86, H2O2 1,000 mg/L), 3.7 ppm. In addition, the “Peak H2S” value in data set [6] (setting [8]) is given as 3 ppm; in data set [6] (Days 69-81, H2O2 330 mg/L) it was 72 ppm; in data set [6] (Days 82-86, H2O2 1,000 mg/L), 33 ppm.
